Measurements taken from patent publication US9388163B2, “Multifunctional radical quenchers for the treatment of mitochondrial dysfunction” (Arizona Board of Regents, a Body Corporate of the State of …, priority 2011, dated 2016).

Assays:
[1] = test system: leukemia CEM lymphocytes; experiment: Suppression of lipid peroxidation (C11-BODIPY 581/591, FACS) in DEM-treated cells; assay type: cell-based; conditions: CEM cells treated with DEM, untreated control 100, treated control 0
Method: (§1) Leukemic CEM cells (ATCC®, catalogue number CRL-2264) were cultured in RPMI (GIBCO, Grand island, NY, USA) with 10% FBS (Fisher Scientific, TX, USA), 2 mM glutamine (HyClone, South Logan, Utah, USA) and 1% penicillin-streptomycin mix antibiotics (Cellgro, Manassas, Va., USA) supplements. Cells were maintained in the log phase at a concentration of between 1×10^5 and 1×10^6 cells/mL.
Measurement of C11-BODIPY^581/591 Oxidation in Cell Culture
Lipid peroxidation in cells was detected by utilizing the oxidant-sensitive lipophilic probe C11 BODIPY^581/591. […] Cells were treated with 500 nM C11 BODIPY^581/591 in phenol red-free RPMI-1640 media and incubated at 37° C. in the dark for 30 minutes. The cells were washed twice with phosphate buffered saline and oxidative stress was induced with 5 mM DEM in phenol red-free RPMI-1640 media for 90 minutes. Treated cells were collected by centrifugation at 300×g for 3 minutes and then washed twice with phosphate buffered saline. Cells were re-suspended in 250 μL of phosphate buffered saline and were analyzed by FACS (FACS Calibur flow cytometer, Becton Dickinson) to monitor the change in intensity of the C11 BODIPY^581/591 green (oxidized) fluorescence signal.

[2] = test system: bovine heart mitochondrial complex (I, III, IV); experiment: NADH oxidase inhibition assay (beef heart submitochondrial particles); assay type: biochemical
Method: X. NADH Oxidase Inhibition Assay
Beef heart mitochondria were obtained by a large-scale procedure. Inverted submitochondrial particles (SMP) were prepared by the method of Matsuno-Yagi and Hatefi (J. Biol. Chem. 260 (1985), p. 14424), and stored in a buffer containing 0.25 M sucrose and 10 mM Tris-HCl (pH 7.4) at −80° C. Inhibitory effects of compounds on bovine heart mitochondrial complex (I, III, IV) were evaluated. Maximal dimethyl sulfoxide concentration never exceeded 2% and had no influence on the control enzymatic activity. Beef heart SMP were diluted to 0.5 mg/mL. The enzymatic activities were assayed at 30° C. and monitored spectrophotometrically with a Beckman Coulter DU-530 (340 nm, ε=6.22 mM^−1 cm^−1). NADH oxidase activity was determined in a reaction medium (2.5 mL) containing 50 mM Hepes, pH 7.5, containing 5 mM MgCl2. The final mitochondrial protein concentration was 30 μg/mL. After the pre-equilibration of SMP with inhibitor for 5 min, the initial rates were calculated from the linear portion of the traces.

[3] = test system: FRDA cell line; experiment: Trypan blue exclusion cell viability assay, DEM-stressed cells; assay type: cell-based; conditions: FRDA cells stressed with DEM
Method: Friedreich's Ataxia lymphocytes and control cells (Coriell, catalogue number […], respectively) were cultured in RPMI (GIBCO, Grand island, NY, USA) with 15% FBS (Fisher Scientific, TX, USA), 2 mM glutamine (HyClone, South Logan, Utah, USA) and 1% penicillin-streptomycin mix antibiotics (Cellgro, Manassas, Va., USA) supplements. Cells were maintained in the log phase at a concentration of between 1×10^5 and 1×10^6 cells/mL.
V. Trypan Blue Cell Viability Assay
Cell viability determined by trypan blue exclusion assay: This technique was used to assess the cytoprotective effects of the invention compounds in cultured cells pharmacologically treated to induce cell death by GSH depletion. DEM was used to deplete cellular GSH and induce oxidative stress. The viability of DEM-treated cells was determined by their ability to exclude the dye trypan blue. Viable cells exclude trypan blue; whereas, non-viable cells take up the dye and stain blue. Briefly, cells were seeded at a density of 1×10^6 cells/mL and treated with different concentrations of the invention compounds. Cells were incubated at 37° C. in a humidified atmosphere of 5% CO2 in air for three hours with 5 mM DEM. Cell viability was determined by staining cells with 0.4% trypan blue using a hemocytometer. At least 500 cells were counted for each experimental group. At the time of assay, >95% of DEM-treated cells were trypan blue positive; whereas, in non-DEM treated control cell cultures >95% cells were viable. Cell viability was expressed as the percentage of control. Data are expressed as means±S.E.M (n=3).

[4] = test system: CEM leukemia cells; experiment: Suppression of ROS production (DCFH-DA, flow cytometry) in DEM-treated cells; assay type: cell-based; conditions: CEM cells treated with DEM, untreated control 100, treated control 0
Method: as §1
Cellular ROS production can be monitored using 2′,7′-dichlorodihydrofluorescein diacetate (DCFH-DA) (LeBel et al. (1992) Chem. Res. Toxicol. 5, 227-231) (Molecular Probes, Eugene, Oreg., USA), a membrane permeable and oxidant-sensitive fluorescent dye. DCFH-DA is a non-fluorescent derivative of fluorescein that emits fluorescence after being oxidized by hydrogen peroxide and other ROS. The emitted fluorescence is directly proportional to the concentration of hydrogen peroxide. DCFH-DA is nonionic and nonpolar and is easily taken up by cells. Once inside the cell, DCFH-DA is hydrolyzed by cellular esterases to non-fluorescent DCFH which traps the dye in the cell. In the presence of ROS including hydrogen peroxide, DCFH is oxidized to the highly fluorescent compound dichlorofluorescein (DCF). The intracellular DCF fluorescence is used as an index of cellular ROS production.
Cellular oxidative stress was induced by pharmacological depletion of glutathione (GSH) using the chemical diethylmaleate (DEM). […] The compounds tested were prepared by first making stock solutions (1 mM) in dimethylsulfoxide (DMSO). Cells were treated with 5 mM DEM for 30 minutes and collected by centrifugation at 300×g for 3 min and then washed twice with Phosphate Buffer Saline (PBS) (Invitrogen, N.Y., USA). Cells were re-suspended in PBS buffer+10 mM glucose and incubated at 37° C. in the dark for 20 min with 10 μM DCFH-DA. Cells were collected by centrifugation at 300×g for 3 min and then washed twice with PBS buffer. The samples were analyzed immediately by flow cytometry (Becton-Dickinson FACS Caliber), (Cell Quest software, BD Biosciences) using 488 nm excitation laser and FL1-H channel 538 nm emission filter. In each analysis, 10,000 events were recorded after cell debris were electronically gated out. Results obtained were verified by running duplicates and repeating experiments N=3 independent experiments. Authentic hydrogen peroxide was used as a positive control.

[5] = test system: FRDA lymphocyte; experiment: Mitochondrial bioenergetics assessment: total cellular ATP content; assay type: cell-based; conditions: for cellular ATP levels: after forty hours, at lower concentration (FIG. 3)
Method: XI. Mitochondrial Bioenergetics Assessment
The use of CoQ10 analogues and methylene blue analogues to normalize and restore the respiratory chain activities provides valuable therapeutic approach for mitochondrial diseases. The reductions of mitochondrial respiratory chain activity in Friedreich ataxia (FRDA) patients have been reported. The efficiency of oxidative phosphorylation was evaluated in FRDA lymphocyte (GM15850) in presence of tested CoQ10 analogues and methylene blue analogues by measuring total cellular ATP content using (ViaLight®-Plus ATP monitoring reagent kit, Lonza).
FRDA lymphocyte cell lines were obtained from Coriell Cell Repositories. FRDA lymphocytes were cultured under glucose-free media supplemented with galactose for two weeks to force energy production predominantly through oxidative phosphorylation rather than glycolysis. Lymphocytes were cultured in RPMI 1640 medium glucose-free supplemented with 25 mM galactose, 2 mM glutamine and 1% penicillin-streptomycin, and 10%, dialyzed fetal bovine serum FBS (<0.5 μg/mL). Briefly, lymphocytes (2×10^5 cell/mL), were plated (1 mL in 12-well plates) and treated with the test compounds at final concentrations of 50, 125. […] Cells were transferred (100 μL) to 96-well microtiter black-walled cell culture plates. The total intracellular ATP level was measured in a luminator (Clarity™ luminescence microplate reader) with the ATP Bioluminescence Assay Kit (ViaLight®-Plus ATP monitoring reagent kit, Lonza) following the manufacturer's instructions. Carbonyl cyanide-p-trifluormethoxy-phenylhydrazone (FCCP) and oligomycin were used as control for inhibition of ATP synthesis.

[6] = James et al. (2005); cited from earlier work

SMILES | Scavenging activity (%) (lipid peroxidation) ([1]; 1 μM) | Scavenging activity (%) (lipid peroxidation) ([1]; 2.5 μM) | Scavenging activity (%) (lipid peroxidation) ([1]; 5 μM) | NADH oxidase (complex I, III, IV) activity (%) ([2]; 5 μM compound) | NADH oxidase (complex I, III, IV) activity (%) ([2]; 10 μM compound) | NADH oxidase (complex I, III, IV) activity (%) ([2]; l μM compound) | viability at 0.1 µM [3] [%] | viability at 0.5 µM [3] [%] | viability at 2.5 µM [3] [%] | % of scavenging activity (ROS) ([4]; 0.25 μM) [%] | % of scavenging activity (ROS) ([4]; 2.5 μM) [%] | % of scavenging activity (ROS) ([4]; 10 μM) [%] | cellular ATP levels [5] | maintaining ATP levels, compared with methylene blue ([5]; at higher concentrations) | calculated octanol-water partition coefficient [6]
CCCCCCCCCCCCCCCCc1c(C)n(O)c(C)c(N)c1=O [CPD-4, 3-amino-5-hexadecyl-1-hydroxy-2,6-dimethylpyridin-4(1H)-one] | 18 ± 2.2 | 52 ± 1.5 | 94 ± 0.2 | 12.7 ± 1.7 | 10.7 ± 1.3 | 17.1 ± 1^ % | 17 ± 5 | 21 ± 9 | 35 ± 9 | 41.4 ± 14.9 | 81.8 ± 3.7 | 91.0 ± 1.5 |  |  | 
CCCCCCCc1c(C)n(O)c(C)c(OC)c1=O [CPD-5, 3-heptyl-1-hydroxy-5-methoxy-2,6-dimethylpyridin-4(1H)-one] | 11 ± 1.8 | 16 ± 1.8 | 2.2 ± 2.3 | 44.5 ± 3.6 | 33.5 ± 2.2 | 74.5 ± 6.9% | 12 ± 6 | 17 ± 7 | 14 ± 3 | 21.0 ± 5.5 | 26.4 ± 4.4 | 0 ± 10 |  |  | 
CN(C)c1ccc2nc3ccc(=O)cc-3sc2c1 [CPD-18, 7-(dimethylamino)-3H-phenothiazin-3-one] |  |  |  |  |  |  |  |  |  |  |  |  | significantly increased cellular ATP levels | superior to methylene blue | 
COC1=C(OC)C(=O)C(C/C=C(\C)CC/C=C(\C)CC/C=C(\C)CC/C=C(\C)CC/C=C(\C)CC/C=C(\C)CC/C=C(\C)CC/C=C(\C)CC/C=C(\C)CCC=C(C)C)=C(C)C1=O [coenzyme Q10] |  |  |  |  |  |  |  |  |  |  |  |  |  |  | > 10^20
CN(C)c1ccc2nc3ccc(=[N+](C)C)cc-3sc2c1 [methylene blue, reference compound] |  |  |  |  |  |  |  |  |  |  |  |  | significantly increased cellular ATP levels |  | 
